Measured values reported in patent US20040082503A1, “Methods for treatment of diabetes using peptide analogues of insulin” (Neurocrine Biosciences, Inc., priority 1998, published 2004).

Experiments:
[1] = test system: DQ8 antigens; assay: Binding to DQ8 antigens
[2] = test system: Soluble NBI-6024 induced T cells (IL-2, IL-4, IL-5 production); assay: Cytokine production by NBI-6024 induced T cells (ELISA); assay type: cell-based, NOD mouse; details: for Cytokine IL-2: 48 h supernatant
Procedure: FIG. 18 is a histogram, showing a comparison of the cytokines produced by immune cells induced by A^16,19 (NBI-6024) peptide in the presence or absence of adjuvant. Groups of NOD mice were immunized with the NBI-6024 alone or emulsified with CFA. The cytokines IL-2 and IL-4, as indicated, were measured at 25 μM of NBI-6024 and expressed as pg/mL after subtracting the background values.
To determine the type of T cells produced following soluble administration of NBI-6024, the culture supernatants from immune lymphoid cells were removed 48 hours following the initiation of culture and the levels of various cytokines measured using standard ELISA technology. […] Within Table 8, values are expressed in pg/ml as mean of triplicates±SEM.

[3] = test system: Insulin specific NOD T cell clone PD6-4.3; assay: Proliferation of insulin-specific NOD T cell clone PD6-4.3; assay type: cell-based, mouse (NOD); details: 50 μg/ml peptide, 72 h, 3H-thymidine; no antigen 163 cpm
Procedure: (§1) Insulin specific NOD T cell lines were established by culturing lymphocytes isolated from islet-infiltrating populations by in vitro stimulation with either porcine insulin at 25 μg/ml and irradiated NOD islet cell in the presence of irradiated NOD spleen cells as antigen presenting cells and cytokines. To obtain the infiltrating lymphocytes the following procedures were performed (see Wegmann et al., Eur. J. Immunol. 24:1853, 1994): the pancreas from the NOD mouse was digested with collagenase and individual islets were isolated manually. The infiltrating lymphocytes were then obtained by mild trypsin digestion of the islets. The insulin specific T cell lines or clones were propagated by serial stimulation in the presence of NOD spleen cells, porcine insulin and lymphokines. Clones were obtained by limiting dilution of the B chain (9-23) specific T cell lines in the presence of the antigen presenting cells and porcine insulin at 25 μg/ml. Wells with a growing population of cells following limiting dilution were expanded in appropriate medium, and after one cycle of growth were tested for reactivity to the B chain (9-23) peptide of insulin by evaluating the proliferative response.
(§2) Insulin B chain (9-23) (SEQ ID NO:2) specific mouse (NOD) T cell clones were isolated from infiltrated islets as described in Example 2. Peptide analogues with single alanine substitutions were prepared as described in Example 1. The effect of each analogue on T cell proliferation was then evaluated using an assay performed in 96-well flat bottom microtiter plates (see Daniel et al., Eur. J. Immunol. 25:1056, 1995). Briefly 25,000 T cell clones along with 1 million irradiated NOD spleen cells were cultured in the presence of 50 μg/ml of insulin B chain 9-23 peptide or any of the alanine substituted peptides listed below in triplicate sets. The plates were incubated for a total of 72 hours in 7% carbon dioxide atmosphere with a pulse of 1 μCi/well of tritiated thymidine for the last 6-8 hours of culture. Cells were harvested on a glass fiber filter and the associated radioactivity was counted in a liquid scintillation counter. Results are expressed as mean counts per minute of triplicate wells.

[4] = test system: Insulin specific NOD T cell clone PD12-4.34; assay: Proliferation of insulin-specific NOD T cell clone PD12-4.34; assay type: cell-based, mouse (NOD); details: 50 μg/ml peptide, 72 h, 3H-thymidine; no antigen 231 cpm
Procedure: as §1, §2

[5] = test system: Insulin specific NOD T cell clone PD12-4.4; assay: Proliferation of insulin-specific NOD T cell clone PD12-4.4; assay type: cell-based, mouse (NOD); details: 50 μg/ml peptide, 72 h, 3H-thymidine; no antigen 350 cpm
Procedure: as §1, §2

[6] = soluble NBI-6024 induced T cells cultured with NBI-6024 5 μM
[7] = soluble NBI-6024 induced T cells cultured with NBI-6024 25 μM

Substance | Binding affinity to DQ8 antigens [1] | Cytokine production profile ([2]; NBI-6024 emulsified with CFA (control)) | Cytokine production profile ([2]; T cells from mice immunized with soluble NBI-6024) | Cytokine IL-4 ([2]; soluble NBI-6024 induced T cells cultured with NBI-6024 1 μM, 0: 134 ± 0) [pg/mL] | Cytokine IL-5 ([2]; soluble NBI-6024 induced T cells cultured with NBI-6024 1 μM, 0: 1,814 ± 332) | Cytokine IL-2 ([2]; soluble NBI-6024 induced T cells cultured with NBI-6024 1 μM) [pg/mL] | Cytokine IL-4 [2, 6] | Cytokine IL-5 [2, 6] | Cytokine IL-2 [2, 6] [pg/mL] | Cytokine IL-4 [2, 7] | Cytokine IL-5 [2, 7] | Cytokine IL-2 [2, 7] [pg/mL] | Response (cpm) of T cell clone PD6-4.3 [3] [cpm] | Response (cpm) of T cell clone PD12-4.34 [4] [cpm] | Response (cpm) of T cell clone PD12-4.4 [5] [cpm]
NBI-6024: insulin B chain 9-23 with alanine substitutions at positions 16 and 19 (SHLVEALALVAGERG) | binds with similar affinity | did induce the expected Th1-cytokine profile (IL-2) | produced the Th2 cytokines, interleukin-4 (FIG. 18) and interleukin-5 (Table 8), and not the Th1-derived interleukin-2 | 684 ± 92 | 9,999 ± 503 pg/ml | <15 | 1,653 ± 51 pg/ml | 23,496 ± 684 pg/ml | <15 | 2,102 ± 85 pg/ml | 28,062 ± 141 pg/ml | <15 |  |  | 
Native 9-23: native peptide, residues 9-23 of human insulin B chain (SEQ ID NO:2) (SHLVEALYLVCGERG; Residues 9-23 of human insulin B chain; listed as Homo sapiens) [reference compound] |  |  |  |  |  |  |  |  |  |  |  |  | 10463 | 3614 | 10000
